Tests used:
Assay type in all cases: physicochemical
[1] = Alternative beta-cyclodextrins for complexation with budesonide (% assay); settings: for % Assay: budesonide inhalation solution 0.188 mg/mL
Protocol: (§1) Preparation of Lab Batches: Tared a clean/dry beaker+stir bar. Weighed and transferred Budesonide and cyclodextrin into the beaker and mixed dry to achieve uniform dispersion. Dissolved with a portion of stock buffer solution to create a saturated ionic phase and mixed for 5-20 minutes. Slowly diluted with the buffer solution and mixed for an additional 5-10 minutes. The pH of the solution was then adjusted with 1M citric acid or 1M NaOH and diluted to the final volume with purified water. While mixing, the solution was sparged with nitrogen for 30 minutes.
Alternative Beta-Cyclodextrins for Complexation: Laboratory batches of budesonide inhalation solution 0.188 mg/mL were prepared in buffer and water according to the procedure described above using 2-hydroxyethyl-B-cyclodextrin and Heptakis 2,6-Di-O-Methyl-B-cyclodextrin.

[2] = EDTA and gamma-cyclodextrin effects on formulation stability; settings: for effect on formulation stability / effect of varying the amount on stability: 90 days at 40° C.; for effect of varying the amount on stability: varied beginning at 0.05%
Protocol: A study was designed to evaluate the effects of EDTA and γ-CD on the formulation stability. Both γ-CD and EDTA were varied beginning at 0.05% and tested at 30 day intervals for 90 days stored at 40° C.

[3] = Complexation rate in buffer vs. water (filtered slurry, UV-Vis); settings: excess Budesonide, 2 g 2-HY-B-CD in 12.5 mL concentrated buffer or water; FIG. 1
Protocol: To evaluate the initial association rate of Budesonide with 2-hydroxypropyl-beta-cyclodextrin, excess Budesonide was mixed with 2 g of 2-HY-B-CD in 12.5 mL of concentrated buffer solution or water. 1.0 mL of this slurry was filtered through a 0.2 syringe filter to remove un-complexed Budesonide and evaluated by UV-Vis at 2 minute intervals. A positive control prepared from filtered Budesonide Inhalation Suspension containing 0.25 mg/mL of Budesonide was used to ensure non-interference. […] This is consistent with the particle size distribution of the API which has a small percentage of Budesonide with <0.2 μm particle size diameter. This small amount of Budesonide was determined not to be significant enough to bias the results.

[4] = Complexation efficiency of budesonide with 2-HY-B-cyclodextrin in buffer vs. water (end point % assay); settings: for % Assay at T = min. (amount of Budesonide complexed): 3% 2-HY-B-Cyclodextrin; for time to reach 100% complexation: determined from the data
Protocol: as §1
An end point analysis was conducted to evaluate the efficiency of the formulation procedure. Laboratory batches of Budesonide Inhalation Solution were prepared in 3% 2-HY-B-Cyclodextrin and assayed to evaluate the efficiency of the formulation procedure. During the second study, the rate of complexation between Budesonide and 2-HY-B-Cyclodextrin was evaluated in both Buffer and Water.
Six laboratory batches of Budesonide Inhalation Solution were prepared as described above, 3 each in buffer and water. The amount of Budesonide complexed was evaluated at 5 minutes, 8 minutes and 12 minutes for each solvent and compared to the expected concentration at the 100% level.

[5] = Filtration study of laboratory batches (assay before and after 0.22 μm filters); settings: Budesonide with 2-hydroxypropyl-β-cyclodextrin, room temperature
Protocol: In this study 50 mL of 5 separate laboratory batches were filtered through PTFE, PVDF, and PES 0.22 μm filters. In the case that the complexation reaction was not completed, the filtration process would remove the un-complexed budesonide producing a significant difference between the assay values before and after filtration. For each of the lab batches tested, no significant difference between pre and post filter assay values was detected, indicating 100% complexation.

[6] = Minimum concentration of 2-hydroxypropyl-B-cyclodextrin for complexation (assay)
Protocol: Studies were conducted to determine the minimum concentration of 2-Hy-B-cyclodextrin required to achieve 100% budesonide complexation. […] To evaluate if a lower concentration may be used a study was conducted to evaluate if 100% complexation was possible at between 0.5% and 3.0% cyclodextrin. • Complexation efficiency in buffer vs. water: Traditional methods of complexation are usually carried out in water. We conducted studies to evaluate the efficiency of Budesonide-cyclodextrin complexation using a complexation solution of high ionic strength and using purified water. • Alternative Salts or Complexation: The ionic strength of the Buffer solution was calculated to be approximately 508 mol/m^−3. Two alternative salts, Sodium Chloride and Potassium Chloride, and a Phosphate buffer were prepared at the same ionic strength. Laboratory batches of budesonide inhalation solution were prepared using each alternative ionic adjuster to evaluate the effects of various salts on the formulation process. • Alternative Beta-Cyclodextrins for Complexation: […] additional Beta Cyclodextrins, 2-hydroxyethyl-B-cyclodextrin and Heptakis 2,6-Di-O-Methyl-B-cyclodextrin, were evaluated as potential alternatives for complexation with Budesonide.
as §1
Laboratory batches of budesonide inhalation Solution 0.188 mg/mL were prepared to determine the minimum concentration of 2-Hydroxypropyl-B-cyclodextrin required for an effective formulation. Each laboratory batch was prepared as per the procedure described above.

[7] = Preliminary proof of concept studies of the new complexation process
[8] = budesonide at 0.188 mg/mL, in buffer

COCC1OC2OC3C(COC)OC(OC4C(COC)OC(OC5C(COC)OC(OC6C(COC)OC(OC7C(COC)OC(OC8C(COC)OC(OC1C(O)C2OC)C(OC)C8O)C(OC)C7O)C(OC)C6O)C(OC)C5O)C(OC)C4O)C(OC)C3O (stereo not drawn) [2,6-di-o-mehtyl, Heptakis 2,6-Di-O-Methyl-B-cyclodextrin]
efficiency of complexation with available budesonide [1, 8]: 100% | time to 100% efficiency of complexation [1, 8]: 3 to 5 min | % Assay ([1]; 3% cyclodextrin): 101.9%

O=C(O)CN(CCN(CC(=O)O)CC(=O)O)CC(=O)O [EDTA]
effect on formulation stability [2]: positive effect on stability | effect on growth of impurity D ([2]; previous studies): helps control the growth of impurity D | effect of varying the amount on stability [2]: no significant effects

OC[C@H]1O[C@@H]2O[C@H]3[C@H](O)[C@@H](O)[C@@H](O[C@H]4[C@H](O)[C@@H](O)[C@@H](O[C@H]5[C@H](O)[C@@H](O)[C@@H](O[C@H]6[C@H](O)[C@@H](O)[C@@H](O[C@H]7[C@H](O)[C@@H](O)[C@@H](O[C@H]8[C@H](O)[C@@H](O)[C@@H](O[C@H]9[C@H](O)[C@@H](O)[C@@H](O[C@H]1[C@H](O)[C@H]2O)O[C@@H]9CO)O[C@@H]8CO)O[C@@H]7CO)O[C@@H]6CO)O[C@@H]5CO)O[C@@H]4CO)O[C@@H]3CO [γ-CD, Gamma-cyclodextrin]
effect on formulation stability [2]: positive effect on stability | effect of varying the amount on stability [2]: no significant effects

2-Hydroxyethyl-B-cyclodextrin
% Assay ([1]; 3% cyclodextrin): 66.7% | % Assay ([1]; 6% cyclodextrin): 90.3% | % Assay ([1]; 8% cyclodextrin): 96.4% | efficiency of complexation possible ([1]; within the proposed range of cyclodextrin (3%-8%)): 100%

CCCC1O[C@@H]2C[C@H]3[C@@H]4CCC5=CC(=O)C=C[C@]5(C)[C@H]4[C@@H](O)C[C@]3(C)[C@]2(C(=O)CO)O1 (stereo partly drawn) [Budesonide, 16,17-(butylidenebis(oxy))-11,21-dihydroxy-, (11-β,16-α)-pregna-1,4-diene-3,20-dione]
rate of complexation with 2-hydoxypropyl-B-cyclodextrin [3]: much higher rate in buffer than in water | % Assay at T = min. (amount of Budesonide complexed) ([4]; solvent Buffer, 5 minutes, vs expected concentration at 100% level): 91.1% | % Assay at T = min. (amount of Budesonide complexed) ([4]; solvent Buffer, 8 minutes): 96.3% | % Assay at T = min. (amount of Budesonide complexed) ([4]; solvent Buffer, 12 minutes): 99.7% | % Assay at T = min. (amount of Budesonide complexed) ([4]; solvent Water, 5 minutes): 71.9% | % Assay at T = min. (amount of Budesonide complexed) ([4]; solvent Water, 8 minutes): 78.1% | % Assay at T = min. (amount of Budesonide complexed) ([4]; solvent Water, 12 minutes): 89.7% | increase in the initial complexation efficiency ([4]; batches in concentrated buffer solution over those prepared in water): ~22% | increase in efficiency ([4]; buffer vs. water, from times to 100% complexation): 180% | time to reach 100% complexation ([4]; in buffer): approximately 9 minutes | time to reach 100% complexation ([4]; in water): ~16.2 min | time to virtually 100% complexation efficiency [5]: less than 10 minutes | complexation efficiency ([5]; no organic solvents): ~100% | minimum desirable concentration of cyclodextrin to meet the USP monograph [6]: ≥ 3.0% | Assay ([6]; 0.188 mg/mL, 0.5% cyclodextrin, molar ratio 8.4): 75.9% | Assay ([6]; 0.188 mg/mL, 1.0% cyclodextrin, molar ratio 16.8): 85.9% | Assay ([6]; 0.188 mg/mL, 1.5% cyclodextrin, molar ratio 25.2): 91.5% | Assay ([6]; 0.188 mg/mL, 2.0% cyclodextrin, molar ratio 33.6): 95.5% | Assay ([6]; 0.188 mg/mL, 2.5% cyclodextrin, molar ratio 41.9): 95.7% | complexation of Budesonide ([6]; 3.0% 2-Hydroxypropyl-B-cyclodextrin, molar ratio 50.33): 100% | complexation of Budesonide ([6]; 4% (w/v) beta-cyclodextrin, Budesonide at 0.188 mg/mL, stable): 100% | ratio of epimer A (of total content) ([6]; below 3.0% Beta-cyclodextrin, USP criterion 40%-51%): exceeded 51% | Assay ([6]; budesonide inhalation solution 0.188 mg/mL, 3.0% 2-Hydroxypropyl-B-cyclodextrin, molar ratio CD:Budesonide 50.3): 99.4%

2-Hydroxypropyl-β-cyclodextrin [HP-β-CD]
percent of HP-β-CD required [7]: < 10%
